Measurements published in patent publication US20230104936A1, “TRPML MODULATORS” (Casma Therapeutics, Inc., priority 2019, published 2023).

Test system: TFEB
Assay: TFEB nuclear translocation assay, HeLa wt cells
Type: cell-based
Details: 2 hrs compound treatment, Table 1 does not say HeLa wt or TRPML1 KO
In short: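 HeLa wt, 2 hr compound, 37° C; 4% PFA fix; anti-TFEB (rabbit, 1:200, overnight 4° C) + Alexa 488 secondary, Hoechst. Imaged ×20, 4 fields/well. Readout: nuclear/ring Alexa 488 intensity ratio; AC50.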

Structure (SMILES) | AC50 (Homo sapiens, HeLa, 2 h) [µM] | AC50 [µM]
COc1ccc(Cl)cc1CS(=O)(=O)Nc1ccccc1N1CCN(C(=O)C(C)(C)C)CC1 [Compound A-563, 1-(5-chloro-2-methoxyphenyl)-N-{2-[4-(2,2-dimethylpropanoyl)piperazin-1-yl]phenyl}methanesulfonamide] | ≥ 10 | –
CC(c1cccc(F)c1N1CCC(COC(C)(C)C)CC1)S(=O)(=O)c1ccc(S(=N)(=O)N(C)C)cc1 (single isomer, unassigned) [Compound A-961, 4-((1-(2-(4-(tert-butoxymethyl)piperidin-1-yl)-3-fluorophenyl)ethyl)sulfonyl)-N,N-dimethylbenzenesulfonimidamide] | – | ≥ 10
Cc1noc(NS(=O)(=O)c2ccc(S(=O)(=O)N(C)C)cc2)c1C1=CCN(c2ccc(Cl)cc2F)CC1 [Compound A-65, N1-(4-(1-(4-chloro-2-fluorophenyl)-1,2,3,6-tetrahydropyridin-4-yl)-3-methylisoxazol-5-yl)-N4,N4-dimethylbenzene-1,4-disulfonamide] | ≥ 10 | –
CS(=O)(=O)c1ccc(S(=O)(=O)Nc2ccccc2N2CCC3(CC2)OCc2cc(F)ccc23)cc1 [Compound A-332, N-(2-{5-fluoro-3H-spiro[2-benzofuran-1,4′-piperidin]-1′-yl}phenyl)-4-methanesulfonylbenzene-1-sulfonamide] | 2.01 to 8 | –
CC(C)(C)C(=O)N1CCN(c2ccccc2NS(=O)(=O)c2ccc(C(C)(C)C(F)(F)F)cc2)CC1 [Compound A-572, N-{2-[4-(2,2-dimethylpropanoyl)piperazin-1-yl]phenyl}-4-(1,1,1-trifluoro-2-methylpropan-2-yl)benzene-1-sulfonamide] | 2.01 to 8 | –
CC(C1CCN(c2c(F)cccc2NS(=O)(=O)c2ccc(S(=N)(=O)N(C)C)cc2)CC1)N1C[C@@H](C)O[C@@H](C)C1 (single isomer, unassigned) [Compound A-871A] | – | ≤ 2
CC(c1cccc(F)c1N1CCC(CN2C3CCC2COC3)CC1)S(=O)(=O)c1ccc(S(C)(=O)=O)cc1 (centres unmarked) [Compound A-904, 8-[(1-{2-fluoro-6-[1-(4-methanesulfonylbenzenesulfonyl)ethyl]phenyl}piperidin-4-yl)methyl]-3-oxa-8-azabicyclo[3.2.1]octane] | 2.01 to 8 | –
CCC1(N2CCOCC2)CCN(c2ccccc2NS(=O)(=O)c2ccc(S(=O)(=O)N(C)C)cc2)CC1 [Compound A-451, N4-{2-[4-ethyl-4-(morpholin-4-yl)piperidin-1-yl]phenyl}-N1,N1-dimethylbenzene-1,4-disulfonamide] | ≤ 2 | –
Cc1cc(Cl)c(N2CCOCC2)c(NS(=O)(=O)c2ccc(S(=O)(=O)N(C)C)cc2)c1 [Compound A-888, N4-[3-chloro-5-methyl-2-(morpholin-4-yl)phenyl]-N1,N1-dimethylbenzene-1,4-disulfonamide] | 2.01 to 8 | –
Cc1cccc(S(=O)(=O)Nc2ccccc2N2CCC3(CC2)COC(C)(C)C3)c1 [Compound A-665, N-(2-{3,3-dimethyl-2-oxa-8-azaspiro[4.5]decan-8-yl}phenyl)-3-methylbenzene-1-sulfonamide] | 2.01 to 8 | –
CN(C)S(=O)(=O)c1ccc(S(=O)(=O)Nc2ccccc2N2CCC(F)(COC(F)(F)F)CC2)cc1 [Compound A-798, N4-(2-{4-fluoro-4-[(trifluoromethoxy)methyl]piperidin-1-yl}phenyl)-N1,N1-dimethylbenzene-1,4-disulfonamide] | ≤ 2 | –
O=S(=O)(Nc1cccc(F)c1N1CCC(CN2C3COCC2C3)CC1)c1ccc(C(F)(F)C2CC2)cc1 [Compound A-898, 4-(cyclopropyldifluoromethyl)-N-{3-fluoro-2-[4-({3-oxa-6-azabicyclo[3.1.1]heptan-6-yl}methyl)piperidin-1-yl]phenyl}benzene-1-sulfonamide] | ≥ 10 | –
CC(c1cccc(F)c1N1CCC(CN2C3CCC2COC3)CC1)S(=O)(=O)c1ccc(S(=O)(=O)N(C)C)cc1 (centres unmarked) [Compound A-855, 4-((1-(2-(4-((3-oxa-8-azabicyclo[3.2.1]octan-8-yl)methyl)piperidin-1-yl)-3-fluorophenyl)ethyl)sulfonyl)-N,N-dimethylbenzenesulfonamide] | – | 2.01 to 8
Cc1cnc(N2CCC(CN3CCC(F)(F)CC3)CC2)c(C(C)S(=O)(=O)c2ccc3c(c2)CCC3)c1 (single isomer, unassigned) [Compound A-999, 2-(4-((4,4-difluoropiperidin-1-yl)methyl)piperidin-1-yl)-3-(1-((2,3-dihydro-1H-inden-5-yl)sulfonyl)ethyl)-5-methylpyridine] | – | ≤ 2
CC1(C)CC2(CCN(c3ccccc3NS(=O)(=O)c3ccc4c(c3)CCC(C(F)F)O4)CC2)CO1 (centres unmarked) [Compound A-690, 2-(difluoromethyl)-N-(2-{3,3-dimethyl-2-oxa-8-azaspiro[4.5]decan-8-yl}phenyl)-3,4-dihydro-2H-1-benzopyran-6-sulfonamide] | 2.01 to 8 | –
COc1cccc(S(=O)(=O)Nc2ccccc2N2CCN(c3ccc(Cl)cc3F)CC2)c1 [Compound A-4, N-{2-[4-(4-chloro-2-fluorophenyl)piperazin-1-yl]phenyl}-3-methoxybenzene-1-sulfonamide] | ≤ 2 | –
N#Cc1cccc(S(=O)(=O)Nc2ccccc2N2CCN(c3ccc(Cl)cc3F)CC2)c1 [Compound A-5, N-{2-[4-(4-chloro-2-fluorophenyl)piperazin-1-yl]phenyl}-3-cyanobenzene-1-sulfonamide] | 2.01 to 8 | –
CS(=O)(=O)c1ccc(S(=O)(=O)Nc2ccccc2N2CCC(O)(c3ccc(Cl)cc3F)CC2)cc1 [Compound A-142, N-{2-[4-(4-chloro-2-fluorophenyl)-4-hydroxypiperidin-1-yl]phenyl}-4-methanesulfonylbenzene-1-sulfonamide] | 2.01 to 8 | –
CC(c1cccc(F)c1N1CCC(C)(C(F)F)CC1)S(=O)(=O)c1ccc(S(=N)(=O)N(C)C)cc1 (single isomer, unassigned) [Compound A-975, 4-((1-(2-(4-(difluoromethyl)-4-methylpiperidin-1-yl)-3-fluorophenyl)ethyl)sulfonyl)-N,N-dimethylbenzenesulfonimidamide] | – | ≥ 10
COCC1(C)CCN(c2ccccc2NS(=O)(=O)Cc2ccc(C)c(C)c2)CC1 [Compound A-642, 1-(3,4-dimethylphenyl)-N-{2-[4-(methoxymethyl)-4-methylpiperidin-1-yl]phenyl}methanesulfonamide] | ≤ 2 | –
CS(=N)(=O)c1ccc(S(=O)(=O)Nc2ccccc2N2CCC(O)(c3ccc(Cl)cc3F)CC2)cc1 (centres unmarked) [Compound A-152, N-{2-[4-(4-chloro-2-fluorophenyl)-4-hydroxypiperidin-1-yl]phenyl}-4-[iimino(methyl)oxo-λ^6-sulfanyl]benzene-1-sulfonamide] | ≥ 10 | –
Cc1cnc(N2CCC(CN3CCC(F)(F)CC3)CC2)c(C(C)S(=O)(=O)c2ccc3c(c2)CCC3)c1 (single isomer, unassigned) [Compound A-1000, 2-(4-((4,4-difluoropiperidin-1-yl)methyl)piperidin-1-yl)-3-(1-((2,3-dihydro-1H-inden-5-yl)sulfonyl)ethyl)-5-methylpyridine] | – | ≥ 10
CN(C)S(=O)(=O)c1ccc(S(=O)(=O)Nc2ccccc2N2CCN(C(=O)C(C)(C)C)CC2)cc1 [Compound A-225, N4-{2-[4-(2,2-dimethylpropanoyl)piperazin-1-yl]phenyl}-N1,N1-dimethylbenzene-1,4-disulfonamide] | 2.01 to 8 | –
